# In patent US20130344065A1, “Combination Treatment with VEGF-C Antagonists” (Vegenics Pty Ltd, priority 2010, published 2013):
# Values joined by “and” are separate entries in the source; they are usually repeats but may differ in a detail not shown here. Equal entries are not always repeated. “Also recorded” adds a separate entry of the source.
# Assays:
# [1] = target: T1, VEGF-C binding to the extracellular domain of VEGFR-3 (Homo sapiens, UniProt P49767); assay: Ba/F3-VEGFR-3/EpoR bioassay of VEGF-C binding; format: cell-based; details: [3H]thymidine incorporation, 48 hrs
# T1 construct: expressed in transfected cells; host or cells: Ba/F3 cells (BA/F3-VEGFR-3/EpoR)
# T1 sequence (P49767 112-227 limits assumed): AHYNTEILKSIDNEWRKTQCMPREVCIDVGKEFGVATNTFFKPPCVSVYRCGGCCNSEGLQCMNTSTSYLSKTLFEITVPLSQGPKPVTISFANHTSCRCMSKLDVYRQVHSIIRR
# Method: (§1) The binding of VEGF-C to the extracellular domain of VEGFR-2 or VEGFR-3 was measured using BA/F3-VEGFR-2 or -3/EpoR cells. The response to ligands and VGX-100 was measured by [^3H]-thymidine incorporation following exposure for 48 hrs.
# (§2) Bioassays to measure the binding of VEGF-C to the extracellular domain of VEGFR-2 or VEGFR-3 were performed with BA/F3-VEGFR-2 or BA/F3-VEGFR-3/EpoR cells. The response to ligands and VGX-100 was measured by [^3H] thymidine incorporation following exposure for 48 hrs.
# [2] = tested on: PC-3 human prostate tumors (xenograft); assay: Subcutaneous PC-3 xenograft, single therapy (Example 2); format: in vivo, nude mice
# Method: Cells were implanted into 80 mice. […] The treatment with drugs began on the day after randomization. […] At the end of the experiment, statistical analysis was performed on the tumor growth rate of each treatment group versus that of the control.
# [3] = tested on: PC-3-GFP human prostate tumors; assay: PC-3-GFP orthotopic MetaMouse model (Example 13); format: in vivo
# Method: PC-3-GFP human prostate cancer orthotopic MetaMouse® model was conducted by AntiCancer Inc. PC-3-GFP tumor fragments were surgically implanted between the ventral lobes of the prostate and closed by suture. Treatment was started three days after surgery (60 mg/kg, 3×/week, IP). Whole body imaging of GFP-expressing tumors was performed once a week in live animals after GFP-visible tumors were established. Primary tumor sizes were estimated once a week by caliper measurement and tumor volume (mm^3) calculated by the formula (L×W2)/2. Details of the study are as follows:
# Male NCr nu/nu mice, 5-6 weeks old, were used in the study. Original breeding pairs were purchased from Taconic, Germantown, N.Y. Test animals were bred and maintained in a HEPA filtered environment for the experiment. Cages, food and bedding were autoclaved. The animal diets were obtained from PMI Nutrition International Inc. (Brentwood, Mo.).
# Vehicle, VGX-100 and Isotype were kept at −20° C. until use. VGX-100 and Isotype were diluted with PBS to proper concentration (7.5 mg/ml and 7.5 mg/ml) before use.
# Tumor stocks were made by subcutaneously injecting PC-3-GFP cells at a concentration of 5×10^6 cells/100 μl into the flank of nude mice. The tumor tissues harvested from s.c. growth in nude mice were inspected and any grossly necrotic or suspected necrotic or non-GFP tumor tissues were removed. Tumor tissues were subsequently cut into small fragments of approximately 1 mm^3.
# The animals were anesthetized with the mixture of Ketaset, Xylazine and PromAce and the surgical area was sterilized using iodine and alcohol. An incision approximately 2 cm long was made in the lower abdomen of the nude mouse using a sterile scalpel and blade (#10). The prostate was exposed and the capsule of the prostate was carefully opened. Two fragments (1 mm^3 each) of PC-3-GFP tissue were sutured between two ventral lobes of the prostate with sterile 8-0 surgical suture (nylon). The abdomen was closed in one layer with sterile 6-0 surgical sutures (silk). All procedures were carried out under a 5× dissecting microscope under HEPA filtered laminar flow hoods.
# Treatment in both groups was started three days after SOI.
# The FluorVivo imaging system (INDEC Biosystems, Santa Clura, Calif.) was used for whole body imaging. Whole body optical imaging of GFP-expressing tumors was performed once a week in live animals after GFP-visible tumors were established. At necropsy, open imaging was performed in the thoracic and abdomen for inspection of metastasis to the lymph nodes.
# Tumor size and body weight measurement: Primary tumor sizes and body weights were measured once a week by using a calipers and an electronic scale, respectively. Primary tumor sizes were estimated once a week by measuring the perpendicular minor dimension (W) and major dimension (L). Approximate tumor volume (mm^3) was calculated by the formula (W2×L)×1/2.
# All the animals were sacrificed at day 30 after treatment initiation.
# Primary tumor was excised and weighed at necropsy.
# The Student's t-test with α equal to 0.05 was used to compare the mean tumor volume and tumor weight among the experimental groups.
# [4] = tested on: VEGF-C stimulated HUVEC proliferation; assay: HUVEC proliferation assay; format: cell-based; details: 48 hrs, WST-1
# Method: HUVEC proliferation assays were conducted for 48 hrs and cell number measured with WST-1 reagent (Roche).
# [5] = tested on: PC-3 human prostate carcinoma xenografts; assay: PC-3 xenograft combination therapy (Example 3, first study);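 also: subcutaneous PC-3 tumors in male athymic NCr nude mice aged 6-7 weeks, combination agents dosed within 30 min of each other, animals euthanized once tumors exceeded 2 g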
# Method: Docetaxel was administered intravenously at 10 mg/kg weekly for three injections.
# HIgG1 Isotype control-humanised antibody (6.4-12.36 mg/ml) and VGX-100 (5.53 and 5.75 mg/ml) were provided as frozen colorless stock solutions in Dulbecco's phosphate buffered saline (DPBS) and stored from light at −80° C. The stock solutions were thawed and stored at 4° C. when treatment began. The dosing solutions (40 mg/kg in 0.2 ml/20 g body weight) were prepared by diluting the stock solution with DPBS. The resulting formulations were clear with pH values ranging from 7.02-7.21. The dosing vials were kept on wet ice during dosing, gently pipetted and not aspirated through a needle except during administration. Dosing solutions were prepared weekly in DPBS and stored protected from light at 4° C. while not in use.
# Docetaxel (lot no. D9A095) was manufactured by Sanofi-Aventis and obtained from McKesson as a pale yellow solution in 50% EtOH/50% Tween80. It was stored protected from light at 4° C. Docetaxel was diluted as directed on the package insert with the provided diluent (sterile water) to produce a clear and colorless 10 mg/ml stock solution. On each treatment day, a fresh 10 mg/ml stock was prepared and further diluted with water to achieve the appropriate concentration. The resulting solution was clear and colorless with a pH of 7.16.
# All test articles were administered within two hours of preparation. For groups receiving combination therapy, the drugs were administered in the order presented in Table 1 and within 30 minutes of one another.
# Male NCR(NCRNU-M) athymic mice were obtained from Taconic. They were 6-7 weeks old on Day 1 of the experiment. The mice were fed irradiated Rodent Diet 5053 (LabDiet™) and water ad libitum. The mice were housed in static cages with Bed-O'Cobs™ bedding inside Biobubble® Clean Rooms that provide H.E.P.A filtered air into the bubble environment at 100 complete air changes per hour. All treatments, body weight determinations, and tumor measurements were carried out in the bubble environment. The environment was controlled to a temperature range of 21.1±1.1° C. (70±2° F.) and a humidity range of 30-70%.
# Test mice were implanted subcutaneously on Day 0. […] Mice with tumors in excess of 2 g or with ulcerated tumors were euthanized, as were those found in obvious distress or in a moribund condition.
# PC-3 cells were obtained from ATCC and expanded using Ham's F-12 media supplemented with 10% fetal bovine serum and 1% penicillin-streptomycin-glutamine in 5% CO2 atmosphere at 37° C. When expansion was complete, the cells were collected using Trypsin (Cell Gro®), the trypsin neutralized, and the cells pooled for implantation. The PC-3 (Passage 10) cell suspension was counted using trypan blue exclusion with a hemacytometer. The cell suspension was reduced to a pellet using an Eppendorf 5810R centrifuge at 1500 rpm (300×g) for 5 minutes at 4° C. A 2.5×10^7 cells/ml suspension was prepared in 50% serum free media and 50% Matrigel®. Pre-injection viability was 97.7%. Test animals were implanted subcutaneously on Day 0 with 5×10^6 cells/animal (0.2 ml) using a 27-gauge needle and syringe. The cell suspension was maintained on wet ice to minimize the loss of viability and inverted frequently to maintain a uniform cell suspension during the inoculation procedure.
# Treatments began on Day 8, when the mean estimated tumor mass for all groups in the experiment was 129 mg (range of group means, 123-134 mg). All animals weighed≧19.2 g at the initiation of therapy. Mean group body weights at first treatment were matched (range of group means, 21.5-22.8 g). All animals were dosed according to individual body weight on the day of treatment (0.2 ml/20 g).
# [6] = tested on: U87MG human glioblastoma tumors; assay: U87MG glioblastoma xenograft, combination (Example 7); format: in vivo, nude mice; details: VGX-100 40 mg/kg, bevacizumab 10 mg/kg, administered alone
# Method: This experiment was conducted broadly in accordance with Example 3, except that U87MG glioblastoma cells were substituted for PC-3 prostate cancer cells. Cells from a human glioblastoma tumor line (U87MG) were implanted subcutaneously into mice and grown until the tumors reached an average size of approximately 150 mg. […] There were 10 animals per treatment group.
# [7] = tested on: U87MG glioblastoma tumors (xenograft); assay: U87MG glioblastoma xenograft, single agent (Example 6)
# Method: Antibodies were administered twice per week by intraperitoneal injection.
# To initiate the study, 5×10^6 of U-87 cells suspended in 100 μl of a mixture of medium/Matrigel (1:1) were subcutaneously implanted to the nude mice in the right flank region. Cancer cells were planted into 80 mice. Animals were monitored for tumor growth daily after cell implantation. When tumor volumes reached 80-100 mm^3, mice were randomized into 5 groups of 10 mice each using only mice having tumor volumes closest to the mean value. Mice with tumor volumes too big or too small were excluded from the study. Tumor volumes were measured using the formula V=L×W×H×π/6, where L and W represented the longer and shorter diameters of the tumor and H represented the height of the tumor. The treatment with drugs was initiated on the day after randomization. […] The treatment was carried out twice weekly for 27 days. Throughout the entire study, tumor volumes were measured twice weekly and body weights once weekly. […] Unscheduled sacrifices were performed if tumor volumes reached>1,500 mm^3, animals lost>25% of their original body weights, tumor ulceration appeared, or mice became moribund.
# [8] = target: T2, VEGF-C binding to the extracellular domain of VEGFR-2 (Homo sapiens, UniProt P49767); assay: Ba/F3-VEGFR-2 bioassay of VEGF-C binding; format: cell-based; details: [3H]thymidine incorporation, 48 hrs
# T2 construct: expressed in transfected cells; host or cells: Ba/F3 cells (BA/F3-VEGFR-2)
# T2 sequence (P49767 112-227 limits assumed): T1 sequence (P49767 112-227 limits assumed)
# Method: as §1, §2
# [9] = VGX-100 10 and 20 mg/kg IP twice weekly
substance,measurement,setting,value
"VGX-100: VEGF-C antibody; heavy chain SEQ ID NO: 3, light chain SEQ ID NO: 4",Blocking of VEGF-C binding to VEGFR-3,[1],blocked VEGF-C binding
same,Tumor volume response,"[2]; VGX-100 40 mg/kg IP twice weekly, 40 mg/kg",significant single-agent activity; also recorded: efficacy equivalent to bevacizumab at 10 mg/kg
same,Tumor volume response,[2]; [9],improved over the negative control
same,Reduction of incidence of metastasis to local lymph nodes vs control,[3]; 60 mg/kg IP,55%
same,Toxicity / body weight,[3]; 60 mg/kg IP 3x/week,no obvious toxicity; also recorded: No acute body weight loss
same,Metastatic incidence to lymph nodes vs control,"[3]; FOTI, Fisher's exact test",significant difference in metastatic incidence
same,# of animals with lymph node (LN) mets,"[3]; FOTI, of 19 analyzed animals, 60 mg/kg IP",6
same,"Animals with lymph node (LN) mets, percent","[3]; FOTI, 60 mg/kg IP",32%
same,Tumor volume vs isotype control,[3]; day 28,statistically significant reduction
same,Reduction of mean tumor volume vs isotype control,"[3]; day 28, 60 mg/kg IP",59%
same,Mean tumor volume (mm^3) mean ± SE,"[3]; day 28 after treatment, caliper, 60 mg/kg IP 3x/week",176.8 ± 183.2 mm^3
same,Tumor weight vs isotype control,[3]; day 30,A statistically significant reduction was not observed
same,Mean tumor weight (g) mean ± SE,"[3]; day 30 after treatment, 60 mg/kg IP",0.95 ± 0.45 g
same,Inhibition of VEGF-C stimulated HUVEC proliferation,[4],inhibited VEGF-C stimulated HUVEC proliferation
same,Time to evaluation size,"[5]; 750 mg, individual animals",39.5 days and 22.8 days and 19.9 days and 22.3 days and 33.5 days and 18.5 days and 31.1 days and 19.4 days and 22.0 days and 22.2 days
same,Tumor Growth Delay,"[5]; T-C, evaluation size 750 mg, same doses",2.2 days
same,% T/C Day 22,"[5]; VGX-100 40 mg/kg IP, bevacizumab 10 mg/kg IP, docetaxel 10 mg/kg IV, median tumor mass vs control",87%
same,% T/C: tumor burden in treatment group compared to control,[5]; at day 160,97.9%
same,% TFS (tumor free survivors),"[5]; at termination, Day 160, same doses",0%
same,Td,[5]; group mean,8.3 days
same,Time to evaluation size,[5]; group mean,25.1 days
same,Time to fold growth EP,[5]; group mean,20.4 days
same,Td,[5]; group median,6.2 days
same,Time to evaluation size,[5]; group median,22.2 days
same,Time to fold growth EP,[5]; group median,20.8 days
same,Time to fold growth EP,[5]; individual animals,27.4 days and 20.9 days and 16.4 days and 21.5 days and 28.2 days and 13.9 days and 21.3 days and 15.8 days and 17.9 days and 20.7 days
same,Complete regression,"[5]; individual animals, yes/no",no
same,Partial regression,"[5]; individual animals, yes/no",no
same,Tumor free survivor,"[5]; individual animals, yes/no",no
same,Total CR,[5]; number of animals of 10,0
same,Total PR,[5]; number of animals of 10,0
same,Total TFS,[5]; number of animals of 10,0
same,% CR (complete regression),[5]; same doses,0%
same,% PR (partial regression),[5]; same doses,0%
same,Anticancer activity of regimen,[5]; same doses,ineffective
same,Apparent Net Tumor Cell Kill (logs),[5]; same doses,−2.85 logs
same,Tumor regressions,[5]; same doses,Nor tumor regressions were observed
same,Td,"[5]; tumor doubling time, individual animals",16.6 days and 5.1 days and 6.0 days and 6.1 days and 14.1 days and 5.7 days and 12.3 days and 6.3 days and 7.1 days and 3.8 days
same,Effect on tumor growth,[6],no significant effect
same,Tumor growth vs vehicle control,[7]; VGX-100 40 mg/kg IP twice weekly,significantly inhibited tumor growth
same,Tumor volume response,[7]; [9],improved over the negative control
same,Blocking of VEGF-C binding to VEGFR-2,[8],blocked VEGF-C binding
